Test results as given in patent US8232273B2, “Heterocyclic compounds and methods of use” (Genentech, Inc., priority 2008, dated 2012).

Experiments:
Bcl-xL (GST-Bcl-xL) [1] = molecular target: T1, Bcl-xL (GST-Bcl-xL) (Homo sapiens, UniProt Q07817); assay: AlphaScreen Bcl-xL binding assay, competition with biotinylated Bim peptide; parameters: made in house; settings: values listed in the order of Table 1; read-out: Alphascreen results (IC50) against the Bcl-xL protein
Source text: The measurement of competition of compounds of the invention with Bim26-mer for a Bcl-2 family protein binding site using an Alpha Screen Bcl-xL binding assay:
The BH3 proteins AlphaScreen™ assay was used to identify active small molecules Bcl-2 family protein screen, e.g., Bcl-xL, hmMcl-1 screen.
The beads come in close proximity when the protein and the peptides interact. Donor beads contain a photosensitiser that converts oxygen to an excited form of O2 at an excitation of 680 nm. Energy is transformed from the singlet oxygen and reacts with chemiluminescers on the acceptor bead, resulting in light emission at 520-620 nm. […] With this information, the IC50 of each compound was calculated
GST-Bcl-xL, GST-hmMcl-1 and biotinylated GST proteins were prepared in-house and were stored as stock solutions at −80° C. The biotinylated-Bak, and biotinylated-Bim peptides were purchased from Auspep and were stored as 500 μM stock solutions in 100% DMSO at −80° C. […] DMSO was purchased from AnalaR.
Compounds of the invention were prepared as 10 mM stocks with 100% DMSO on the day prior to performing the assay. […] To achieve a final compound concentration of 1 μM, in a separate matrical plate, 28 μL of 100% DMSO and 2 μL of 10 mM compound was added to a well, mixed well, 2 μL of this solution was taken and added to 38 μL of 100% DMSO. 20 μL of this solution was added to the test matrical plate. Several control compounds were included in the test plates. For the control wells 15 μL 100% DMSO only was added to the appropriate wells of each plate. The compound plates were then serially diluted 2 fold using the MiniTrak. Once titrations were complete, the compound plate was immediately covered with a foil seal to prevent evaporation.
The assay and bead buffers were prepared fresh. Each titrated compound plate was assayed in duplicate. The following volumes were sufficient to run 12 Proxiplates (4 assay plates run in duplicate in each of Bclxl, hmMcl and counter assays)
Protein and Peptide Preparation; and Assay Performance • 1. The assay and bead buffers were used to prepare the acceptor and donor solutions. ALPHASCREEN™ beads are light sensitive and therefore prepared in a darkened room. 2.5 μL of beads were added per 1 mL of buffer. • 2. The volume of protein or peptide to add was calculated using the following formula:
V2=Volume of stock protein/Peptide to add to Acceptor/Donor solution • 3. The assay components were prepared as separate Acceptor and Donor Solutions. The Acceptor Solution contained Acceptor beads and target protein, while the Donor Solution contained Donor beads and biotinylated peptide.
• 4. After the solutions were prepared, they were left to incubate for 30 minutes at room temperature to allow the beads to bind to the protein and the peptide. • 5. 50 μL of Bcl-xL solution, 50 μL of hmMcl-1 solution and 50 μL of biotinylated-GST were added into separate deep wells on an assay plate. A control 50 μL Assay/Bead buffer was added separate well plates (no protein). • 6. 50 μL of Bim solution and 50 μL of Bak solution were added into separate deep well plates. • 7. Transfer 0.3 μL it of sample from the compound plate into each assay plate. • 8. Incubated for 30 mins at RT, then add 5 μL of the Donor solution. After addition of the Donor solution, tapped plates gently and sealed individually with adhesive film. • 9.
The percent inhibition was calculated using the following equation:
[formula] • x=RFU obtained after compound treatment • μ^−=RFU obtained for the negative controls (no protein controls) • μ^+=RFU obtained for the positive controls (DMSO vehicle controls)

Bcl-xL (GST-Bcl-xL) [2] = molecular target: T1, Bcl-xL (GST-Bcl-xL); assay: TR-FRET binding assay, competition with F-Bak for the Bcl-xL binding site; settings: values listed in the order of Table 1, read-out: TR-FRET assay results (Ki), Bcl-xL
Protocol: The measurement of competition of compounds of the invention with F-Bak for a Bcl-2 family protein (Bcl-xL) binding site using a Time Resolved Fluorescence Resonance Energy Transfer (TR-FRET) binding assay:
Test compounds were serially diluted in DMSO starting at 50 μM (2× starting concentration; 10% DMSO) and 10 μt transferred into a 384-well plate.
The samples are then mixed on a shaker for 1 minute then incubated for an additional 2 hours at room temperature. For each assay plate, a probe/antibody and protein/antibody/probe mixture were included as a negative and a positive control, respectively. Fluorescence was measured on the Envision (Perkin Elmer) using a 340/35 nm excitation filter and 520/525 (F-Bak) and 495/510 nm (Tb-labeled anti-his antibody) emission filters. Dissociation constants (Ki) were determined using Wang's equation (see, Wang, Z. X. An exact mathematical expression for describing competitive binding of two different ligands to a protein molecule. FEBS Lett. 1995 360:111-114). The TR-FRET assay can be performed in the presence of varying concentrations of human serum (HS) or fetal bovine serum (FBS).

T1 sequence (Q07817 whole entry, species assumed): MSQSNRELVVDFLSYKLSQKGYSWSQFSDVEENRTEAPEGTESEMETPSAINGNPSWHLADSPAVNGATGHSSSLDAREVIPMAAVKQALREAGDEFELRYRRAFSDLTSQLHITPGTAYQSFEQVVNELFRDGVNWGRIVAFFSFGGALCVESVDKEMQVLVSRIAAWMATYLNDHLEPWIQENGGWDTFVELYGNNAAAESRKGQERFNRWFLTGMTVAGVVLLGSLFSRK

Structure (SMILES)	IC50 (Bcl-xL (GST-Bcl-xL) [1]) [nM]	Ki (Bcl-xL (GST-Bcl-xL) [2]) [nM]
CN(C)CC#Cc1ccc(OCCCc2sc(N3CCc4cccc(C(=O)Nc5nc6ccccc6s5)c4C3)nc2C(=O)O)c(Cl)c1 [Compound 119, 2-(8-(benzo[d]thiazol-2-ylcarbamoyl)-3,4-dihydroisoquinolin-2(1H)-yl)-5-(3-(2-chloro-4-(3-(dimethylamino)prop-1-ynyl)phenoxy)propyl)thiazole-4-carboxylic acid]	0.2	0.04
O=C(O)c1cccc(N2CCc3cccc(C(=O)Nc4nc5ccccc5s4)c3C2)n1 [Compound 120, 6-(8-(benzo[d]thiazol-2-ylcarbamoyl)-3,4-dihydroisoquinolin-2(1H)-yl)picolinic acid]	310	150
O=C(Nc1nc2ccccc2s1)c1cccc2c1CN(c1ccc(CCCOc3ccccc3)c(C(=O)O)n1)CC2 [Compound 121, 6-(8-(benzo[d]thiazol-2-ylcarbamoyl)-3,4-dihydroisoquinolin-2(1H)-yl)-3-(3-phenoxypropyl)picolinic acid]	136	10.6
O=C(O)c1ccnc(N2CCc3cccc(C(=O)Nc4nc5ccccc5s4)c3C2)n1 [Compound 122, 2-(8-(benzo[d]thiazol-2-ylcarbamoyl)-3,4-dihydroisoquinolin-2(1H)-yl)pyrimidine-4-carboxylic acid]	7500	–
O=C(Nc1nc2ccccc2s1)c1cccc2c1CN(c1ncc(Cl)c(C(=O)O)n1)CC2 [Compound 123, 2-(8-(benzo[d]thiazol-2-ylcarbamoyl)-3,4-dihydroisoquinolin-2(1H)-yl)-5-chloropyrimidine-4-carboxylic acid]	4000	–
O=C(O)c1coc(N2CCc3cccc(C(=O)Nc4nc5ccccc5s4)c3C2)n1 [Compound 124, 2-(8-(benzo[d]thiazol-2-ylcarbamoyl)-3,4-dihydroisoquinolin-2(1H)-yl)oxazole-4-carboxylic acid]	865	–
O=C(Nc1nc2ccccc2s1)c1cccc2c1CN(c1ccc(-c3ccccc3)c(C(=O)O)n1)CC2 [Compound 125, 6-(8-(benzo[d]thiazol-2-ylcarbamoyl)-3,4-dihydroisoquinolin-2(1H)-yl)-3-phenylpicolinic acid]	124	66.2
Cc1ccccc1-c1ccc(N2CCc3cccc(C(=O)Nc4nc5ccccc5s4)c3C2)nc1C(=O)O [Compound 126, 6-(8-(benzo[d]thiazol-2-ylcarbamoyl)-3,4-dihydroisoquinolin-2(1H)-yl)-3-o-tolylpicolinic acid]	77.6	197
O=C(Nc1nc2ccccc2s1)c1cccc2c1CN(c1ccc(CCc3ccccc3)c(C(=O)O)n1)CC2 [Compound 127, 6-(8-(benzo[d]thiazol-2-ylcarbamoyl)-3,4-dihydroisoquinolin-2(1H)-yl)-3-phenethylpicolinic acid]	598	660
O=C(CSc1ccccc1)Nc1ccc(N2CCc3cccc(C(=O)Nc4nc5ccccc5s4)c3C2)nc1C(=O)O [Compound 128, 6-(8-(benzo[d]thiazol-2-ylcarbamoyl)-3,4-dihydroisoquinolin-2(1H)-yl)-3-(2-(phenylthio)acetamido)picolinic acid]	340	–
CN(C)CCOc1ccc(OCCCc2ccc(N3CCc4cccc(C(=O)Nc5nc6ccccc6s5)c4C3)nc2C(=O)O)cc1 [Compound 132, 6-(8-(benzo[d]thiazol-2-ylcarbamoyl)-3,4-dihydroisoquinolin-2(1H)-yl)-3-(3-(4-(2-(dimethylamino)ethoxy)phenoxy)propyl)picolinic acid]	0.9	0.18
CN(C)CC#Cc1ccc(OCCCc2ccc(N3CCc4cccc(C(=O)Nc5nc6ccccc6s5)c4C3)nc2C(=O)O)cc1 [Compound 133, 6-(8-(benzo[d]thiazol-2-ylcarbamoyl)-3,4-dihydroisoquinolin-2(1H)-yl)-3-(3-(4-(3-(dimethylamino)prop-1-ynyl)phenoxy)propyl)picolinic acid]	1.2	0.023
O=C(Nc1nc2ccccc2s1)c1cccc2c1CN(c1ccc(/C=C/c3ccccc3)c(C(=O)O)n1)CC2 [Compound 135, (E)-6-(8-(benzo[d]thiazol-2-ylcarbamoyl)-3,4-dihydroisoquinolin-2(1H)-yl)-3-styrylpicolinic acid]	92.4	–
COc1ccc(COc2ccc(N3CCc4cccc(C(=O)Nc5nc6ccccc6s5)c4C3)nc2C(=O)O)cc1 [Compound 136, 6-(8-(benzo[d]thiazol-2-ylcarbamoyl)-3,4-dihydroisoquinolin-2(1H)-yl)-3-(4-methoxybenzyloxy)picolinic acid]	19000	–
O=C(Nc1nc2ccccc2s1)c1cccc2c1CN(c1ccc(CCCc3ccccc3)c(C(=O)O)n1)CC2 [Compound 137, 6-(8-(benzo[d]thiazol-2-ylcarbamoyl)-3,4-dihydroisoquinolin-2(1H)-yl)-3-(3-phenylpropyl)picolinic acid]	30	–
O=C(Nc1nc2ccccc2s1)c1cccc2c1CN(c1ccc(/C=C/Cc3ccccc3)c(C(=O)O)n1)CC2 [Compound 138, (E)-6-(8-(benzo[d]thiazol-2-ylcarbamoyl)-3,4-dihydroisoquinolin-2(1H)-yl)-3-(3-phenylprop-1-enyl)picolinic acid]	3	–
NCc1ccc(OCCCc2sc(N3CCc4cccc(C(=O)Nc5nc6ccccc6s5)c4C3)nc2C(=O)O)cc1 [Compound 141, 5-(3-(4-(aminomethyl)phenoxy)propyl)-2-(8-(benzo[d]thiazol-2-ylcarbamoyl)-3,4-dihydroisoquinolin-2(1H)-yl)thiazole-4-carboxylic acid]	3800	0.487
O=C(O)c1csc(N2CCc3cccc(C(=O)Nc4nc5ccccc5s4)c3C2)n1 [Example 1, 2-(8-(Benzo[d]thiazol-2-ylcarbamoyl)-3,4-dihydroisoquinolin-2(1H)-yl)thiazole-4-carboxylic acid]	100	77
O=C(Nc1nc2ccccc2s1)c1cccc2c1CN(c1nc(C(=O)O)c(CCCSc3ccncc3)s1)CC2 [Example 3, 2-(8-(benzo[d]thiazol-2-ylcarbamoyl)-3,4-dihydroisoquinolin-2(1H)-yl)-5-(3-(pyridin-4-ylthio)propyl)thiazole-4-carboxylic acid]	1	0.2
CC(C)(C)OC(=O)Nc1ccc(OCCCc2sc(N3CCc4cccc(C(=O)Nc5nc6ccccc6s5)c4C3)nc2C(=O)O)cc1 [Example 4, 2-(8-(benzo[d]thiazol-2-ylcarbamoyl)-3,4-dihydroisoquinolin-2(1H)-yl)-5-(3-(4-(tert-butoxycarbonylamino)phenoxy)propyl)thiazole-4-carboxylic acid]	0.8	0.3
O=C(Nc1nc2ccccc2s1)c1cccc2c1CN(c1ccc(CCCOc3ccc(OCCN4CCCC4)cc3)c(C(=O)O)n1)CC2 [Example 106, 6-(8-(benzo[d]thiazol-2-ylcarbamoyl)-3,4-dihydroisoquinolin-2(1H)-yl)-3-(3-(4-(2-(pyrrolidin-1-yl)ethoxy)phenoxy)propyl)picolinic acid]	1.1	–
